The record followed here is the SangsterLogP compilation.

For data set [1] the following is noted: pH 7.4.
Data set [2] can be described thus: method code SF-AS, from PMID: 10944786. To be noted: pH 7.0.
Data set [3] in a line: method code SF-RC, from DOI: 10.1021/es00096a007.
Data set [4] in a line: method code SF-AS, from DOI: 10.1016/0378-5173(92)90099-n.
Assay in data set [5]: not given
The source holds these as a separate data set.

Data set [6] is described as follows: from Ammermann, E., Loecher, F., Lorenz, G., Janssen, B., Karbach, S., & Meyer, N. (1990). BAS 480 F - a new broad spectrum fungicide. In Brighton Crop Protection Conference, Pests and Diseases - 1990 …. The note with it: pH 7.0.
A short description of data set [7]: method code SF-RC, from DOI: 10.1016/j.nucmedbio.2012.01.004, PMID: 22336372. The note with it: pH 7.4.
Assay in data set [8]: not given
This is another data set of the same source.

Assay in data set [9]: not given
The source holds these as a separate data set.

A short description of data set [10]: method code SF-AS, from DOI: 10.1016/s0928-0987(01)00170-1, PMID: 11500262. To be noted: pH 12.5.
Data set [11] can be described thus: method code SF-RC, from DOI: 10.1016/j.bmc.2005.04.014, PMID: 15911305. The note with it: pH 7.4.
Data set [12] is described as follows: method code SF-LC/MS, from DOI: 10.1021/jm4008714, PMID: 23919803. The note with it: pH 7.4.
Assay in data set [13]: not given
This is another data set of the same source.

The nature of data set [14]: method code SF-RC, from DOI: 10.1021/jm070025+, PMID: 17411026. The note with it: pH 7.4.
Assay in data set [15]: not given
The source holds these as a separate data set.

Assay in data set [16]: not given
The source holds these as a separate data set.

A short description of data set [17]: method code SF-AS, from DOI: 10.1021/jm00099a010, PMID: 1433194. To be noted: pH 7.4.
Data set [18] can be described thus: method code SF-AS, from PMID: 872227. To be noted: pH 7.2.
Assay in data set [19]: not given
The source holds these as a separate data set.

Assay in data set [20]: not given
The source holds these as a separate data set.

Data set [21] can be described thus: method code SF-RC, from PMID: 14530489. To be noted: pH 7.4.
Data set [22] can be described thus: method code SF-AS, from DOI: 10.1016/s0021-9673(00)91570-x. To be noted: pH 3.4.
Data set [23] in a line: method code SF, from DOI: 10.1021/jm049495j.s001, PMID: 15771458. The note with it: pH 12.0.
The nature of data set [24]: method code SF-HPLC, from Hairsine, P. (1997). Direct measurement of partition coefficient by shake flask technique and gradient elution HPLC. Lab. Practice, 38(11)73-75.
A short description of data set [25]: method code SF-AS, from DOI: 10.1213/00000539-199008000-00008, PMID: 2375517.
Data set [26] is described as follows: method code SF-RC, from DOI: 10.1002/jlcr.1932. To be noted: pH 7.4.
Assay in data set [27]: not given
The source holds these as a separate data set.

Data set [28] can be described thus: method code SF-AS, from PMID: 3449083.
Assay in data set [29]: not given
The source holds these as a separate data set.

A short description of data set [30]: method code SF-HPLC, from DOI: 10.1023/a:1007514121527, PMID: 10714601. To be noted: pH 7.4.
Assay in data set [31]: not given
The source holds these as a separate data set.

The nature of data set [32]: method code SF-AS, from DOI: 10.1007/bf02273190.
The nature of data set [33]: method code SF-AS, from Zsuzsa, H.; Nora, K. (1979). Study on the partition coefficient of acetanilides. Nehezvegyp. Kut. Intez. Kozl., 8, 139-146.
Assay in data set [34]: not given
The source holds these as a separate data set.

A short description of data set [35]: method code SF-RC, from DOI: 10.1016/s0969-8051(99)00046-3, PMID: 10628564. The note with it: pH 7.4.
Data set [36] can be described thus: method code SF-AS, from DOI: 10.1248/cpb.39.458, PMID: 1829027. To be noted: pH 7.0.
A short description of data set [37]: method code SF-GLC, from DOI: 10.1556/jpc.23.2010.3.6.
Assay in data set [38]: not given
This is another data set of the same source.

Assay in data set [39]: not given
This is another data set of the same source.

Assay in data set [40]: not given
This is another data set of the same source.

A short description of data set [41]: method code SF-AS, from DOI: 10.1021/jm00254a028, PMID: 4845386.
Data set [42] can be described thus: method code SF-GR, from DOI: 10.1021/jm00199a032, PMID: 619145.
Assay in data set [43]: not given
The source holds these as a separate data set.

Assay in data set [44]: not given
This is another data set of the same source.

Take `CCCCSCS(=O)CC(CO)NC(=O)C=Cc1c(C)[nH]c(=O)[nH]c1=O` (stereo not given): in [1], the logD came out at 0.14.

`CCCCOc1cccc(NC(=O)OCN2CCCCC2)c1` showed a log distribution coefficient (logD) in data set [2] of 2.97.

Regarding `Nc1cc2c3ccccc3ccc2c2ccccc12`, in data set [3], the logP turned out to be 4.98.

As to `CCn1cc(C(=O)O)c(=O)c2cc(F)c(N3CCN(C)CC3)c(F)c21`, the logP in [4] worked out at 0.3.

With `CC(Oc1ccccc1)C(=O)N[C@@H]1C(=O)N2[C@@H]1SC(C)(C)[C@@H]2C(=O)O` (stereo not given in full), the logP is 2.19.

For the molecule `COC1=CC(=NO)CC(C)C12Oc1c(Cl)c(OC)cc(OC)c1C2=O` (stereo not given), in data set [5], the logP came out at 2.31.

The molecule `Fc1ccc([C@]2(Cn3cncn3)O[C@H]2c2ccccc2Cl)cc1` (stereo in doubt) showed a logD in [6] of 3.44.

`C#CCN(CCF)c1ccc(S(=O)c2ccc([N+](=O)[O-])cc2)cc1` (stereo not given): the logD in [7] was 2.6.

For `CCCCCCCC(=O)N[C@@H]1C(=O)N2[C@@H]1SC(C)(C)[C@@H]2C(=O)O`, the logP in [8] amounted to 3.32.

`COc1ccc(Sc2ccc(I)cc2N)c(CN(C)C)c1`: the logP in data set [9] amounted to 3.34.

As for `CN(C)CCC(c1ccccc1)c1ccccc1`, the logD in [10] was 5.4.

For the molecule `Nc1nc(OCc2cccc(I)c2)c2ncn(C3CC(O)C(CO)O3)c2n1` (stereo not given), the logD in [11] amounted to 1.4.

`Cn1c(=O)nc(-c2ccccc2)c2oc3ccccc3c21`: the logD in data set [12] is 2.8.

Consider `CCCN(CCC)P(=O)(OC(C)CC)c1ccccc1` (stereo not given), for which the lipophilicity (logP) in data set [13] was 4.13.

In [14], `CN(C)c1ccc(/C=C/c2cnc(OCCO)c(I)c2)cc1` showed a logD of 2.64.

For the molecule `c1ccc2c(c1)Cc1c-2ccc2ccccc12`, the log partition coefficient (logP) in data set [15] was determined as 5.32.

`COC(=O)C1C2CC3CCC1N3CC2=Cc1ccc(I)c(Cl)c1` (stereo not given) returned a lipophilicity (logP) in data set [16] of 4.25.

In the case of `CN1CCN(Cc2ccc(C(=O)c3csc(S(N)(=O)=O)c3)cc2)CC1`, the logD in data set [17] turned out to be 0.37.

Consider `CCCOc1ccc(NC(=O)OCCN2CCOCC2)c(C)c1`, for which, in [18], the logD came to 2.21.

In [19], `O=C(O)c1cc(/N=N/c2ccc(S(=O)(=O)Nc3ccccn3)cc2)ccc1O` yielded a logP of -0.13.

In data set [20], `CCCCCCCCCCCCCCOC(=O)C(C)O` (stereo not given) had a log partition coefficient (logP) of 6.08.

Consider `CS(=O)(=O)c1ccc(-c2ccsc2-c2ccc(F)cc2)cc1`, for which the logD in data set [21] was 3.72.

The molecule `COc1cc(CC(=O)O)ccc1OCC1CCCCC1` displayed a pH-dependent lipophilicity (logD) in data set [22] of 3.35.

In turn, `c1ccc2c(c1)CCn1ccnc1C21CCNCC1` displayed a logD in [23] of 1.18.

In [24], `O=C(CCNNC(=O)c1ccncc1)NCc1ccccc1` returned a logP of 0.83.

In turn, `CCCN1CCCC[C@H]1C(=O)Nc1c(C)cccc1C` registered a lipophilicity (logP) in data set [25] of 2.89.

In data set [26], `O=C(OCC1=CC(=O)c2ccccc2C1=O)c1ccc(F)cc1` displayed a logD of 2.7.

As to `CCCCC(CC)COC(=O)c1ccc(N(C)C)cc1` (stereo not given), the lipophilicity (logP) in data set [27] is 6.6.

Take `CN1C=CCC(C(=O)OC2CCC(NC(=O)N(CCCl)N=O)CC2)=C1` (stereo not given): the log partition coefficient (logP) in data set [28] was 2.53.

In turn, `CN1CC[C@]23c4c5ccc(O)c4O[C@H]2C(=O)CC[C@@]3(O)[C@H]1C5` came in with a log partition coefficient (logP) in data set [29] of 0.67.

The molecule `COc1cc2oc(=O)cc(CC(NC(C)=O)C(N)=O)c2cc1OC` (stereo not given) gave a log distribution coefficient (logD) in data set [30] of -0.13.

Consider `Cc1cc2c(s1)Nc1ccccc1N=C2N1CCN(C)CC1`, for which, in data set [31], the logP worked out at 3.

`CCCCCCC(=O)N(C)c1ccc(S(=O)(=O)N(C)C)cc1` registered a log partition coefficient (logP) in data set [32] of 2.61.

As to `CC(Cl)C(=O)N(CC(=O)Nc1ccccc1)c1ccccc1` (stereo not given), the lipophilicity (logP) in data set [33] came to 3.02.

`c1ccc(C2=NOC3COC(c4ccccc4)OCC23)cc1` (stereo not given) returned a logP in [34] of 3.42.

For `CN1CCN(C(=O)OC2c3nccnc3C(=O)N2c2ccc(I)cn2)CC1` (stereo not given), in data set [35], the pH-dependent lipophilicity (logD) was 1.6.

For the molecule `CCCC(=O)OC[C@H]1O[C@@H](n2cc(F)c(=O)[nH]c2=O)C[C@@H]1OC(=O)CCC`, the logD in data set [36] worked out at 1.9.

In data set [37], `CCCCCCCCCCCCCCCCO` gave a log partition coefficient (logP) of 7.

For the molecule `CC1C=COC1C(=O)Nc1cccc(-c2nc3ncccc3o2)c1` (stereo not given), the log partition coefficient (logP) in [38] amounted to 2.9.

In data set [39], `Oc1ccc(C23CC4CC(CC(C4)C2)C3)cc1` had a logP of 5.46.

Consider `CCCCCCNC(=O)CNC(=O)OCc1ccccc1`, for which the lipophilicity (logP) in data set [40] worked out at 3.7.

`NC(=O)OC1c2ccccc2C2CCCCC2C1OC(N)=O` (stereo not given) gave a logP in data set [41] of 2.17.

As for `S=P(NN=Cc1ccccn1)(NN=Cc1ccccn1)Oc1ccccc1`, the log partition coefficient (logP) in data set [42] was determined as 1.62.

Molecule `Clc1ccc(COC(Cn2ccnc2)c2ccc(Cl)cc2Cl)c(Cl)c1` (stereo not given) yielded a logP in data set [43] of 5.81.

On to `O=C1/C(=C/c2cccc(Cl)c2)CCCc2ccccc21`, for which, in data set [44], the log partition coefficient (logP) turned out to be 5.22.

Broadly, the logD is the decadic logarithm of the distribution of all forms, ionised or not, between an organic phase and buffer at a given pH. By logP is commonly meant a log measure of how a compound divides between an organic and an aqueous phase. A high value points to a more lipophilic compound.
